Results on two molecules are retold here after patent US10059721B2, “Substituted thieno[3,2-b]pyrazines for inhibiting cancer cell proliferation and inducing cancer cell apoptosis” (DONGGUK UNIVERSITY INDUSTRY-ACADEMIC COOPERATION FOUNDATION, priority 2014, dated 2018).

As a reminder, the IC50 is the point on the concentration scale where inhibition reaches its midpoint.

Common to all, as to type: cell-based
One assay relates to SK-OV-3. Put plainly: Cell growth inhibition experiment (SRB), SK-OV-3. The note with it: Homo sapiens, incubated for 96 hours, read-out: IC50 (μM) of cancer cell lines SK-OV-3. The procedure:
(§1) The 4-(aryl)-N-(2-alkoxythieno[3,2-b]pyrazin-3-yl)-piperazin-1-carboxamide derivative compounds synthesized according to Examples 1 to 27 of the present invention were treated with various human tissue-derived cancer cell lines cultured according to Experimental Example 1, and thus the inhibitory effect of the growth of human cancer cells was confirmed. The cell growth inhibition experiment was conducted using sulforhodamine B (SRB) technique (Skehan et al., J. National Cancer Institute, 1990, 82: 1107-1112). Specifically, each cell line was seeded in a 96-well plate at a density of 2 to 3×10^3 cells/well, cultured overnight, and then treated with the 4-(aryl)-N-(2-alkoxythieno[3,2-b]pyrazin-3-yl)-piperazin-1-carboxamide derivative compounds of the present invention. The experiment was repeated 3 times for each compound. Cells treated with each compound were additionally incubated for 96 hours, fixed with 10% trichloroacetic acid (TCA), and then left at 4° C. for 1 hour. The resultant was washed 3 times with distilled water. Thereafter, each cell was treated with 0.4% sulforhodamine B dissolved in 1% acetic acid, stained for 30 minutes, and then washed 4 times with 1% acetic acid. The resultant was dried in the air. After shaking the resultant in Tris solution (10 mM) for 5 minutes, the absorbance was measured at 530 nm using a Benchmark Plus Microplate reader (Bio-Rad Laboratories, Hercules, Calif.).
(§2) In order to convert the OD530 value to the number of viable cells per each well, the measured OD530 value was compared to the standard OD530-vs.-cell number curve of each cell line. The percent survival was calculated using the following formula: % survival=Nlive cells(test)/Nlive cells(control)×100
(§3) IC50 values were calculated by nonlinear regression analysis.

In assay [1] the test system is PANC-1 (pancreatic cancer) cell line. Put plainly: Cell growth inhibition experiment (SRB), PANC-1. Conditions: Homo sapiens, incubated for 96 hours, read-out: IC50 (μM) of cancer cell lines PANC-1. The procedure: (§4) The cell lines below were used in order to confirm the efficacy of the compounds synthesized in Examples 1 to 27. Human PANC-1 (pancreatic cancer) and MDA-MB-231 (breast cancer) cell lines were obtained from American Type Culture Collection (ATCC; Manassas, Va.); and HN31 (head and neck cancer) and UMRC2 (kidney cancer) cell lines were secured from the United States National Institutes of Health (Bethesda, Md.). The MDA-MB-231, UMRC2, HN31, and PANC-1 cell lines were cultured in Dulbecco modified Eagle medium (DMEM) containing FBS (10%), HEPES (10 mM), penicillin (100 U/mL), and streptomycin (100 μg/mL). All cell lines were cultured in an incubator (37° C., 5% CO2).
as §1, §2, §3

For another assay, the system named is A549. Nature of the assay: Cell growth inhibition experiment (SRB), A549. The note with it: Homo sapiens, incubated for 96 hours, read-out: IC50 (μM) of cancer cell lines A549. As for the experimental part:
as §1, §2, §3

The next assay deals with HT29. Nature of the assay: Cell growth inhibition experiment (SRB), HT29. The note with it: Homo sapiens, HT-29, incubated for 96 hours, read-out: IC50 (μM) of cancer cell lines HT29. As for the experimental part:
as §1, §2, §3

Assay [2] has as its system UMRC2 (kidney cancer) cell line. Put plainly: Cell growth inhibition experiment (SRB), UMRC2. The note with it: Homo sapiens, incubated for 96 hours, read-out: IC50 (μM) of cancer cell lines UMRC2. The procedure:
as §4, §1, §2, §3

The next assay relates to HUVEC. Nature of the assay: Cell growth inhibition experiment (SRB), HUVEC. The note with it: Homo sapiens, incubated for 96 hours, read-out: IC50 (μM) of cancer cell lines HUVEC. As for the experimental part:
as §1, §2, §3

The subject of assay [3] is MDA-MB-231 (breast cancer) cell line. Put plainly: Cell growth inhibition experiment (SRB), MDA-MB-231. The note with it: Homo sapiens, incubated for 96 hours, read-out: IC50 (μM) of cancer cell lines MDA-MB-231. As for the experimental part:
as §4, §1, §2, §3

The next assay concerns HEK293. Nature of the assay: Cell growth inhibition experiment (SRB), HEK293. Conditions: Homo sapiens, incubated for 96 hours, read-out: IC50 (μM) of cancer cell lines HEK293. As for the experimental part:
as §1, §2, §3

In assay [4] the test system is HN31 (head and neck cancer) cell line. Nature of the assay: Cell growth inhibition experiment (SRB), HN31. Conditions: Homo sapiens, incubated for 96 hours, read-out: IC50 (μM) of cancer cell lines HN31. The procedure:
as §4, §1, §2, §3

Turning to `COc1cc(OC)cc(N2CCN(C(=O)Nc3nc4sc(Cl)cc4nc3OC)CC2)c1` [Example 1, N-(6-chloro-2-methoxythieno[3,2-b]pyrazin-3-yl)-4-(3,5-dimethoxyphenyl)piperazin-1-carboxamide], the IC50 was determined as 0.27 µM with SK-OV-3; 0.53 µM in assay [1]; 2.13 µM in the assay on A549; 0.31 µM with HT29; 0.03 µM in assay [2]; 0.12 µM in the assay on HUVEC. Besides, the values for the IC50 (in assay [3]; with HEK293; in assay [4]) were 0.02 µM, 0.63 µM and 0.27 µM, respectively.
Consider `Cc1cc(C)cc(N2CCN(C(=O)Nc3nc4sccc4nc3OC(C)C)CC2)c1` [Example 17, 4-(3,5-dimethylphenyl)-N-(2-isopropoxythieno[3,2-b]pyrazin-3-yl)piperazin-1-carboxamide], for which the IC50 (with SK-OV-3; in [1]; with A549; in the assay on HT29; in assay [2]; in the assay on HUVEC) was under 2.5 µM each time. For the same molecule, the IC50 (in assay [3]; in the assay with HEK293; in assay [4]) was under 2.5 µM throughout.
